Measurements: paper PMC8878452, “A Tale of Toxin Promiscuity: The Versatile Pharmacological Effects of Hcr 1b-2 Sea Anemone Peptide on Voltage-Gated Ion Channels” (Marine Drugs, 2022)
Entries after “also recorded” stand apart in the source; their conditions may differ. Bridges are numbered along the chain shown (N, C = ends). Where no end group is shown, it is not given here.

Experiments:
[1] = tested on: rKv1.3; experiment: TEVC, Kv1.3 in Xenopus oocytes; type: cell-based, rat; details: 1 µM, ND96 pH 7.4, 18–22 °C, n ≥ 3
From the text: (§1) For the expression of Kv channels (rKv1.1, rKv1.2, rKv1.3, rKv1.4, rK1.5, rKv1.6, hKv2.1, hKv3.1, rKv4.2, hKv7.1, hKv7.2/7.3, hKv7.4, KQT1 (from the roundworm Caenorhabditis elegans), hKv10.1 (hEAG1), hKv11.1 (hERG1), and Shaker, from Drosophila melanogaster), Nav channels (rNav1.1, rNav1.2, rNav1.3, rNav1.4, hNav1.5, mNav1.6, hNav1.7, hNav1.8, and BgNav (from the cockroach Blattella germanica), as well as the hβ1 and rβ1 subunits, and Cav channels (rCav3.1, hCav3.2, and rCav3.3) in Xenopus oocytes, the linearized plasmids were transcribed using the T7 or SP6 mMESSAGEmMACHINE transcription kit (Ambion, Austin, TX, USA). Mature female animals were purchased from Nasco (Fort Atkinson, WI, USA) and were housed in the Aquatic Facility (KU Leuven) in compliance with the regulations of the European Union (EU) concerning the welfare of laboratory animals as declared in Directive 2010/63/EU. The use of X. laevis oocytes was approved by the Animal Ethics Committee of the KU Leuven, with the license number P186/2019. […]
(§2) Whole-cell currents of oocytes were recorded 1 to 3 days after RNA injection. […] The current–voltage relationships were determined by 50 ms step depolarizations between −90 and +65 mV using 5 or 10 mV increments. All electrophysiological data were analyzed following the procedures described by Peigneur et al., 2012 [20].
(§3) All values were expressed as means ± SEM. […]

[2] = tested on: rCav3.3; experiment: TEVC, Cav3.3 in Xenopus oocytes; type: cell-based, rat
From the text: (§4) For the expression of Kv channels (rKv1.1, rKv1.2, rKv1.3, rKv1.4, rK1.5, rKv1.6, hKv2.1, hKv3.1, rKv4.2, hKv7.1, hKv7.2/7.3, hKv7.4, KQT1 (from the roundworm Caenorhabditis elegans), hKv10.1 (hEAG1), hKv11.1 (hERG1), and Shaker, from Drosophila melanogaster), Nav channels (rNav1.1, rNav1.2, rNav1.3, rNav1.4, hNav1.5, mNav1.6, hNav1.7, hNav1.8, and BgNav (from the cockroach Blattella germanica), as well as the hβ1 and rβ1 subunits, and Cav channels (rCav3.1, hCav3.2, and rCav3.3) in Xenopus oocytes, the linearized plasmids were transcribed using the T7 or SP6 mMESSAGEmMACHINE transcription kit (Ambion, Austin, TX, USA). Mature female animals were purchased from Nasco (Fort Atkinson, WI, USA) and were housed in the Aquatic Facility (KU Leuven) in compliance with the regulations of the European Union (EU) concerning the welfare of laboratory animals as declared in Directive 2010/63/EU. The use of X. laevis oocytes was approved by the Animal Ethics Committee of the KU Leuven, with the license number P186/2019.
(§5) Stage V–VI oocytes were collected from anesthetized female X. laevis frog as previously described, with the frogs anesthetized by placement in a 0.1% tricaine solution (amino benzoic acid ethyl ester; Merck, Kenilworth, NJ, USA). Oocyte microinjection was performed using a microinjector (Drummond Scientifc®, Broomall, PA, USA), with a programmed cRNA injection volume of 4–50 nL, depending on channel subtype. The oocytes were incubated in ND96 solution (96 mM NaCl; 2 mM KCl; 1.8 mM CaCl2; 2 mM MgCl2, and 5 mM HEPES, pH 7.4), supplemented with 50 mg/L of gentamicin sulfate.
(§6) Electrophysiological measurements were performed at room temperature (18–22 °C) using the two-electrode voltage-clamp (TEVC) technique. Data were obtained using a GeneClamp 500 amplifier (Axon Instruments®, Burlingame, CA, USA) and Clampex9 software (Axon Instruments®, USA) was responsible for data acquisition and storage. Glass micropipettes were produced using glass capillaries (borosilicate WPI 1B120-6) and drawn in a WPI (World Precision Instruments®, Sarasota, FL, USA) manual stretcher. The bath and perfusion solutions were either the previously described ND96 (Nav and Kv channels) or calcium-free ND96 supplemented with 10 mM BaCl2 (Cav channels).
(§7) Whole-cell currents of oocytes were recorded 1 to 3 days after RNA injection. The current and voltage electrodes were filled with 3 M KCl, and their resistance was adjusted from 1.0 to 2.5 MΩ. Currents were sampled at 20 kHz (Nav channels) and 10 kHz (Kv and Cav channels) and filtered using a four-pole Bessel low-pass Bessel filter at 1 kHz for sodium and […] for potassium and calcium, except for the hERG ion channel in which the currents were filtered at 1 kHz. Leak subtraction was performed using a P/4 protocol. Kv1.x currents were evoked by 500 ms depolarizations to 0 mV, followed by a 500 ms pulse to −50 mV from a holding potential of −90 mV. Kv2.1, Kv3.1, Kv4.2, Kv7.x, and KQT1 currents were elicited by 700 ms pulses to +20 mV from a holding potential of −90 mV. Current traces of the hERG1 channel were elicited by applying a +40 mV prepulse for 2 s, followed by a step of −120 mV for 2 s. Current traces of hEAG1 were elicited by a 2 s depolarization to 0 mV from a holding potential of −90 mV. Sodium current traces were evoked by a 100 ms depolarization to 0 mV. For Cav channels, current traces were elicited by 700 ms depolarizations to −20 mV from a holding potential of −90 mV. The current–voltage relationships were determined by 50 ms step depolarizations between −90 and +65 mV using 5 or 10 mV increments. All electrophysiological data were analyzed following the procedures described by Peigneur et al., 2012 [20].
All values were expressed as means ± SEM. Differences in ionic currents between the control and toxin conditions were compared by a one-way ANOVA, followed by Dunnett’s multiple comparisons test. Differences were considered statistically significant when […].

[3] = tested on: ASIC1a; details: cited from earlier work
From the text: (§8) Hcr 1b-2, the major peptide, presents 41 residues and belongs to the class 1b of sea anemone toxins, with a molecular mass of 4518.9 Da (Uniprot accession number C0HL52).

[4] = tested on: ASIC3; details: cited from earlier work
From the text: as §8

[5] = tested on: rKv4.2; experiment: TEVC, Kv4.2 in Xenopus oocytes; type: cell-based, rat; details: 1 µM, ND96 pH 7.4, 18–22 °C, n ≥ 3
From the text: as §1, §2, §3

[6] = tested on: rKv1.4; experiment: TEVC, Kv1.4 in Xenopus oocytes; type: cell-based, rat
From the text: as §4, §5, §6
as §7, with “Current traces of hEAG1 were elicited by a 2 s depolarization to 0 mV from a holding potential of −90 mV. Sodium current traces were evoked by a 100 ms depolarization to 0 mV. For Cav channels, current traces were elicited by 700 ms depolarizations to −20 mV from a holding potential of −90 mV.” left out
as §3

[7] = tested on: mNav1.6; experiment: TEVC, Nav1.6 in Xenopus oocytes; type: cell-based, mouse
From the text: as §4, §5, §6
as §7, with “Current traces of hEAG1 were elicited by a 2 s depolarization to 0 mV from a holding potential of −90 mV. Sodium current traces were evoked by a 100 ms depolarization to 0 mV. For Cav channels, current traces were elicited by 700 ms depolarizations to −20 mV from a holding potential of −90 mV.” left out
as §3

[8] = tested on: rKv1.1; experiment: TEVC, Kv1.1 in Xenopus oocytes; type: cell-based, rat
From the text: as §4, §5, §6
as §2, with “injection. The current and voltage electrodes were filled with 3 M KCl, and their resistance was adjusted from 1.0 to 2.5 MΩ.” for “injection.”
as §3

[9] = tested on: ASIC; set-up: method as in 2 sources, one per row (each row's own in cited_ref): ref 17 = [17]; PMID 29684594; doi:10.1016/j.peptides.2018.04.013; 17. Kalina R. Gladkikh I. Dmitrenok P. Chernikov O. Koshelev S. Kvetkina A. Kozlov S. Kozlovskaya E. Monastyrnaya M. New APETx-like peptides from sea anemone Heteractis crispa modulate ASIC1a channels ||| ref 22 = [22]; PMID 15044953; doi:10.1038/sj.emboj.7600177; 22. Diochot S. Baron A. Rash L.D. Deval E. Escoubas P. Scarzello S. Salinas M. Lazdunski M. A new sea anemone peptide, APETx2, inhibits ASIC3, a major acid-sensitive channel in sensory neurons EMBO J.; details: cited from earlier work
[10] = 1 µM vs control (ND96 Ca2+ free)
[11] = 1 µM, TEVC, ND96 pH 7.4, 18–22 °C, n ≥ 3

## GTPCKCHGYIGVYWFMLAGCPNGYGYNLSCPYFLGICCVKK (disulfide 4-37, 6-30, 20-38 (inferred)) [Hcr 1b-2]
[1]
  effect on potassium current, Kv1.3: inhibition
[2]; [10]
  Shift in Vhalf activation, Cav3.3: −2.2 mV
  Shift in Vhalf inactivation, Cav3.3: −2.1 mV
[2]; 1 µM, Cav3.3 vs Cav3.1
  higher activity on Cav3.3 than on Cav3.1: 9 fold
[2]; 1 µM, Cav3.3 vs Cav3.2
  higher activity on Cav3.3 than on Cav3.2: 1.6 fold
[2]; 1 µM, calcium-free ND96 + 10 mM BaCl2, 700 ms depolarization to −20 mV from −90 mV, mean ± SEM, n ≥ 3
  inhibition, Cav3.3: 58.9 ± 9.4%
[2]; 1 µM, control (ND96 Ca2+ free) −41.7 ± 0.4, mean ± SEM, n ≥ 3
  Vhalf activation, Cav3.3: −43.9 ± 0.5 mV
[2]; 1 µM, control (ND96 Ca2+ free) −47.6 ± 0.2, mean ± SEM, n ≥ 3
  Vhalf inactivation, Cav3.3: −49.7 ± 0.3 mV
[3]
  IC50: 4.8 ± 0.3 µM
[4]
  IC50: 15.9 ± 1.1 µM
[5]
  effect on potassium current, Kv4.2: inhibition
[6]; 1 µM
  gating-modifier effect (voltage-current relationship), Kv1.4: non-significant gating-modifier effect; also recorded: negligible shift in the midpoint of activation
[6]; 1 µM vs control (ND96)
  Shift in Vhalf activation, Kv1.4: 2.5 mV
[6]; 1 µM, 500 ms depolarization to 0 mV from −90 mV, mean ± SEM, n ≥ 3
  activity (inhibition of current), Kv1.4: 46.9 ± 4.3%
[6]; [11]
  effect on potassium current, Kv1.4: inhibition
[6]; 1 µM, control (ND96) 7.5 ± 0.7, mean ± SEM
  Vhalf activation, Kv1.4: 10.0 ± 0.5 mV
[7]; 1 µM vs control (ND96)
  Shift in Vhalf activation, Nav1.6: 3.5 mV
  Shift in Vhalf inactivation, Nav1.6: −7.6 mV
[7]; 1 µM, 100 ms depolarization to 0 mV, mean ± SEM, n ≥ 3
  reduction of peak amplitude (INa), Nav1.6: 41.8 ± 7.1%
[7]; 1 µM, control (ND96) −23.5 ± 0.1, mean ± SEM, n ≥ 3
  Vhalf activation, Nav1.6: −20.0 ± 0.1 mV
[7]; 1 µM, control (ND96) −49.1 ± 0.3, mean ± SEM, n ≥ 3
  Vhalf inactivation, Nav1.6: −56.7 ± 0.4 mV
[8]; 1 µM
  gating-modifier effect (voltage-current relationship), Kv1.1: non-significant gating-modifier effect
[8]; 1 µM vs control (ND96)
  Shift in Vhalf activation, Kv1.1: −4.8 mV
[8]; [11]
  effect on potassium current, Kv1.1: activation
[8]; 1 µM, control (ND96) −13.8 ± 0.3, mean ± SEM
  Vhalf activation, Kv1.1: −18.6 ± 0.3 mV
[9]
  ASIC inhibition: ASIC inhibitors
